Measurements published in US20240335466A1, “NICOTINAMIDE MONONUCLEOTIDE DERIVATIVES FOR USE IN THE TREATMENT OF SAPHO SYNDROME” (NUVAMID SA, priority 2021, published 2024).

How the values were obtained:
[1] = tested on: patient suffering from SAPHO syndrome; experiment: Case report: oral NMN in a patient with SAPHO syndrome, BASFI self-assessment questionnaire; format: in vivo, human; conditions: one patient
Procedure: (§1) This case report investigated the effects of nicotinamide mononucleotide derivatives according to the invention in a patient suffering from SAPHO syndrome. Especially, the effects of nicotinamide mononucleotide (NMN), i.e. compound 001, were investigated. NMN was orally administered at a dose of 500 mg/day, once a day in the morning, for 12 months. The patient reported that SAPHO syndrome manifested with osteitis in the upper right chest area managed with NSAIDs. At the start of the treatment, the patient reported strong pain and swelling (7.5/10) in joints affected by the disease. The patient also suffered from fatigue. In the absence of SAPHO syndrome specific questionnaire, efficacy of the treatment was assessed using self-assessment questionnaires: the Bath Ankylosing Spondylitis Disease Activity Index (BASDAI) which is the gold standard for measuring and following disease activity in Ankylosing Spondylitis, and the Bath Ankylosing Spondylitis Functional Index (BAFSI) for measuring and monitoring functional ability in patients with ankylosing spondylitis. […] Evaluation was performed before start of the treatment, and after 12 months of treatment.

[2] = tested on: patient suffering from SAPHO syndrome; experiment: Case report: oral NMN in a patient with SAPHO syndrome, BASDAI self-assessment questionnaire; format: in vivo, human; conditions: one patient
Procedure: as §1

NC(=O)c1ccc[n+]([C@@H]2O[C@H](COP(=O)([O-])O)[C@@H](O)[C@H]2O)c1 [NMN, nicotinamide mononucleotide]
BASFI score after NMN ([1]; 500 mg/day oral once a day, after 12 months, before NMN: 2.4): 2.1
BASFI item: physically demanding activities, score ([1]; 500 mg/day oral, after one year treatment, before treatment 7/10): 4.5 /10
BASDAI score after NMN ([2]; 500 mg/day oral once a day, after 12 months, before NMN: 5.4, scores of 4 or greater suggest suboptimal control of disease): 3
effect on fatigue, pain and swelling of the joints and discomfort (BASDAI items) ([2]; 500 mg/day oral, 12 months, before: pain and swelling 7.5/10, fatigue 6.5/10, discomfort 6.5/10): significantly improved fatigue, pain and swelling of the joints and discomfort
